Measurements published in patent publication US10065990B2, “Cyclic peptide compound, and preparation method, pharmaceutical composition and use thereof” (HANGZHOU GUANYU BIO-MEDICAL CO., LTD, priority 2013, dated 2018).
Where two headings read alike, the source gives them in different places.

Assays:
Assay in all cases: MTT cancer cell growth inhibition
Assay type in all cases: cell-based
[1] = tested on: MDA-MB-231 (breast cancer cells)
How it was run: (§1)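 72 h exposure, final drug 10^−5–10^−10 M, triplicate wells; 1500 cells/well plated the day before; medium DMEM or 1640 + 10% FBS; 37° C./5% CO2. MTT (5 mg/ml stock) 4 h, DMSO solubilisation, A570 → % viability → GI50.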

[2] = tested on: KBM5-T315I (human chronic myelogenous leukemia); settings: MTT, 72 hours incubation, KBM5-T315I cells, read-out: GI50 KBM5-T315I
How it was run: as §1

[3] = tested on: A549 (human lung cancer cells); settings: MTT
How it was run: as §1

[4] = tested on: BGC-823 (human gastric cancer cells); settings: MTT
How it was run: as §1

[5] = tested on: MOLT-4 (human acute lymphoblastic leukemia cells); settings: MTT
How it was run: as §1

[6] = tested on: MCF-7 (human breast cancer cells)
How it was run: as §1

[7] = tested on: Hela (human cervical cancer cells); settings: MTT
How it was run: as §1

[8] = tested on: PANC-1 (Pac-1, human pancreatic cancer cells); settings: MTT
How it was run: as §1

[9] = tested on: KBM-5 (human chronic myelogenous leukemia); settings: MTT, 72 hours incubation, KBM-5 cells, read-out: GI50 KBM-5
How it was run: as §1

[10] = tested on: lncap (prostate cancer cells); settings: MTT
How it was run: as §1

[11] = tested on: H1975 (non-small cell lung adenocarcinoma); settings: MTT, 72 hours incubation, H1975 cells, read-out: GI50 H1975
How it was run: as §1

[12] = tested on: DU145 (human prostate cancer cells); settings: MTT
How it was run: as §1

[13] = tested on: U937 (human leukemia cells); settings: MTT
How it was run: as §1

[14] = tested on: SGC-7901 (human gastric cancer cells); settings: MTT, 72 hours incubation, SGC-7901 cells, read-out: GI50 SGC-7901
How it was run: as §1

[15] = tested on: Huh-7 (human hepatoma cells); settings: MTT, 72 hours incubation, Huh-7 cells, read-out: GI50 Huh-7
How it was run: as §1

[16] = Homo sapiens, MDA-MB-231, 72 h, read-out: GI50 MDA-MB-231, MTT, 72 hours incubation, MDA-MB-231 cells
[17] = Homo sapiens, A549, 72 h, A549 cells, 72 hours incubation, read-out: GI50 A54
[18] = Homo sapiens, A549, 72 h, 72 hours, present invention, read-out: GI50 A549, a
[19] = Homo sapiens, BGC-823, 72 h, BGC-823 cells, 72 hours incubation, read-out: GI50 BG
[20] = Homo sapiens, BGC-823, 72 h, 72 hours, present invention, read-out: GI50 BGC823, a
[21] = Homo sapiens, MOLT-4, 72 h, MOLT-4 cells, 72 hours incubation, read-out: GI50 Mol
[22] = Homo sapiens, MOLT-4, 72 h, 72 hours, present invention, read-out: GI50 Molt-4, a
[23] = Homo sapiens, MCF7, 72 h, 72 hours, present invention, read-out: GI50 MCF7, a
[24] = Homo sapiens, MCF7, 72 h, MCF-7 cells, 72 hours incubation, read-out: GI50 MCF
[25] = Homo sapiens, HeLa, 72 h, Hela cells, 72 hours incubation, read-out: GI50 Hela
[26] = Homo sapiens, HeLa, 72 h, 72 hours, present invention, read-out: GI50 Hela, a
[27] = Homo sapiens, PANC-1, 72 h, 72 hours, present invention, read-out: GI50 PANC-1, a
[28] = Homo sapiens, PANC-1, 72 h, PANC-1 cells, 72 hours incubation, read-out: GI50 PAN
[29] = Homo sapiens, LNCaP, 72 h, 72 hours, present invention, read-out: GI50 lncap, a
[30] = Homo sapiens, LNCaP, 72 h, lncap cells, 72 hours incubation, read-out: GI50 lnca
[31] = Homo sapiens, DU-145, 72 h, DU145 cells, 72 hours incubation, read-out: GI50 Du1
[32] = Homo sapiens, DU-145, 72 h, 72 hours, present invention, read-out: GI50 Du145, a
[33] = Homo sapiens, U-937, 72 h, 72 hours, present invention, read-out: GI50 U937, a
[34] = Homo sapiens, U-937, 72 h, U937 cells, 72 hours incubation, read-out: GI50 U93
[35] = Homo sapiens, A549, 72 h, 72 hours incubation, read-out: GI50 A54
[36] = Homo sapiens, BGC-823, 72 h, 72 hours incubation, read-out: GI50 BG
[37] = Homo sapiens, MOLT-4, 72 h, 72 hours incubation, read-out: GI50 Mol
[38] = Homo sapiens, MCF7, 72 h, 72 hours incubation, read-out: GI50 MCF
[39] = Homo sapiens, HeLa, 72 h, 72 hours incubation, read-out: GI50 Hela
[40] = Homo sapiens, DU-145, 72 h, 72 hours incubation, read-out: GI50 Du1
[41] = Homo sapiens, PANC-1, 72 h, 72 hours incubation, read-out: GI50 PAN
[42] = Homo sapiens, LNCaP, 72 h, 72 hours incubation, read-out: GI50 lnca
[43] = Homo sapiens, U-937, 72 h, 72 hours incubation, read-out: GI50 U93

| GI50 [1, 16] [nM] | GI50 ([2]; Homo sapiens, 72 h) [nM] | GI50 [3, 17] [nM] | GI50 [3, 18] [nM] | GI50 [4, 19] [nM] | GI50 [4, 20] [nM] | GI50 [5, 21] [nM] | GI50 [5, 22] [nM] | GI50 [6, 23] [nM] | GI50 [6, 24] [nM] | GI50 [7, 25] [nM] | GI50 [7, 26] [nM] | GI50 [8, 28] [nM] | GI50 ([9]; Homo sapiens, KBM5, 72 h) [nM] | GI50 [10, 30] [nM] | GI50 ([11]; Homo sapiens, NCI-H1975, 72 h) [nM] | GI50 [12, 31] [nM] | GI50 [13, 34] [nM] | GI50 ([14]; Homo sapiens, SGC-7901, 72 h) [nM] | GI50 ([15]; Homo sapiens, Huh-7, 72 h) [nM] | Structure (SMILES) | other results |
| --- | --- | --- | --- | --- | --- | --- | --- | --- | --- | --- | --- | --- | --- | --- | --- | --- | --- | --- | --- | --- | --- |
| 45 | 92 | 30 | 34 | 40 | 43 | 70 | 7 | 56 | 50 | 40 | 47 | 230 | 27 | 40 | 63 | 30 | 60 | 42 | 38 | C/C=C1\NC(=O)c2cccc(n2)CNC(=O)C[C@@H](/C=C/CCSC(=O)CCCCCCC)OC(=O)CNC1=O [Compound 235] | GI50 [8, 27]: 230 nM; GI50 [10, 29]: 40 nM; GI50 [12, 32]: 3 nM; GI50 [13, 33]: 6 nM |
| 91 | 52 |  | 52 |  | 31 |  | 21 | 30 |  |  | 40 |  | 49 |  | 34 |  |  | 35 | 46 | C/C=C1\NC(=O)c2cccc(n2)CNC(=O)C[C@@H](/C=C/CCSC(C)=O)OC(=O)[C@H](C(C)C)NC1=O [Compound 7] | GI50 [3, 35]: 50 nM; GI50 [4, 36]: 30 nM; GI50 [5, 37]: 20 nM; GI50 [6, 38]: 30 nM; GI50 [7, 39]: 40 nM; GI50 [8, 27]: 5 nM; GI50 [10, 29]: 3 nM; GI50 [12, 40]: 10 nM; GI50 [12, 32]: 13 nM; GI50 [13, 33]: 8 nM |
| 29 | 47 | 100 |  | 20 |  | 20 |  |  | 20 | 10 |  | 50 | 42 | 80 | 42 | 30 | 40 | 62 | 27 | C/C=C1\NC(=O)c2cc(SCCC)cc(n2)CNC(=O)C[C@@H](/C=C/CCSC(=O)CCCCCCC)OC(=O)[C@H](CC)NC1=O [Compound 175] |  |
|  |  |  |  |  |  |  |  |  |  |  |  |  |  |  |  |  |  |  |  | C/C=C1\NC(=O)c2ncc(SC)c(n2)CNC(=O)C[C@@H](/C=C/CCSC(C)=O)OC(=O)[C@H](C(C)C)NC1=O [Compound 217] | GI50 ([1]; read-out: GI50 MDA-MB-231, MTT, 72 hours incubation, MDA-MB-231 cells): 19 nM; GI50 [2]: 83 nM; GI50 ([3]; A549 cells, 72 hours incubation, read-out: GI50 A54): 70 nM; GI50 ([4]; BGC-823 cells, 72 hours incubation, read-out: GI50 BG): 30 nM; GI50 ([5]; MOLT-4 cells, 72 hours incubation, read-out: GI50 Mol): 90 nM; GI50 ([6]; MCF-7 cells, 72 hours incubation, read-out: GI50 MCF): 60 nM; GI50 ([7]; Hela cells, 72 hours incubation, read-out: GI50 Hela): 10 nM; GI50 ([8]; PANC-1 cells, 72 hours incubation, read-out: GI50 PAN): 70 nM; GI50 [9]: 41 nM; GI50 ([10]; lncap cells, 72 hours incubation, read-out: GI50 lnca): 30 nM; GI50 [11]: 43 nM; GI50 ([12]; DU145 cells, 72 hours incubation, read-out: GI50 Du1): 20 nM; GI50 ([13]; U937 cells, 72 hours incubation, read-out: GI50 U93): 90 nM; GI50 [14]: 28 nM; GI50 [15]: 19 nM |
| 43 | 41 | 40 |  | 30 |  | 40 |  |  | 70 | 430 |  | 80 | 31 | 80 | 11 | 30 | 50 | 73 | 33 | C/C=C1\NC(=O)c2cc(SC)cc(n2)CNC(=O)C[C@@H](/C=C/CCSC(C)=O)OC(=O)[C@H](CCCCN)NC1=O [Compound 193] |  |
| 85 | 12 |  | 100 |  | 200 |  | 20 | 400 |  |  | 220 |  | 94 |  | 62 |  |  | 43 | 92 | C/C=C1\NC(=O)c2cccc(n2)CNC(=O)C[C@@H](/C=C/CCSC(=O)CCCCCCC)OC(=O)[C@H](Cc2ccccc2)NC1=O [Compound 14] | GI50 [3, 35]: 100 nM; GI50 [4, 36]: 200 nM; GI50 [5, 37]: 20 nM; GI50 [6, 38]: 400 nM; GI50 [7, 39]: 220 nM; GI50 [8, 41]: 530 nM; GI50 [8, 27]: 530 nM; GI50 [10, 42]: 200 nM; GI50 [10, 29]: 200 nM; GI50 [12, 40]: 10 nM; GI50 [12, 32]: 12 nM; GI50 [13, 43]: 30 nM; GI50 [13, 33]: 3 nM |
| 39 | 27 | 50 |  | 50 |  | 50 |  |  | 70 | 70 |  | 30 | 15 | 60 | 64 | 60 | 40 | 59 | 47 | C=C1NC(=O)c2cc(SC)cc(n2)CNC(=O)C[C@@H](/C=C/CCSC(C)=O)OC(=O)[C@H](C(C)C)NC1=O [Compound 205] |  |
| 24 | 56 |  |  |  |  |  |  |  |  |  |  |  | 81 |  | 29 |  |  | 49 | 24 | C/C=C1\NC(=O)c2ccc(F)c(n2)CNC(=O)C[C@@H](/C=C/CCSC(=O)CC)OC(=O)[C@H](C(C)C)NC1=O [Example 47] | GI50 [3, 35]: 40 nM; GI50 [4, 36]: 60 nM; GI50 [5, 37]: 20 nM; GI50 [6, 38]: 50 nM; GI50 [7, 39]: 80 nM; GI50 [8, 41]: 40 nM; GI50 [10, 42]: 20 nM; GI50 [12, 40]: 30 nM; GI50 [13, 43]: 20 nM |
| 12 | 87 | 420 | 420 | 170 | 170 | 970 | 970 | 350 | 350 | 880 | 880 | 930 | 49 | 940 | 83 | 40 | 110 | 33 | 49 | C/C=C1\NC(=O)c2cccc(n2)CNC(=O)C[C@@H](/C=C/CCSC(=O)CCCCCCC)OC(=O)[C@H](C(C)(C)C)NC1=O [Compound 237] | GI50 [8, 27]: 930 nM; GI50 [10, 29]: 940 nM; GI50 [12, 32]: 40 nM; GI50 [13, 33]: 110 nM |
